Test results as given in patent US8133884B2, “Compounds for the treatment of hepatitis C” (priority 2008, dated 2012).
Read-outs that look alike come from different tables or passages of the source.

Assays:
1a replicon = test: HCV replicon assay with a 1a replicon; format: cell-based; settings: Hepatitis C virus
From the text: To perform the HCV FRET screening assay, 96-well cell culture plates were used, The FRET peptide (Anaspec, Inc.) (Taliani et al., Anal. Biochem., 240:60-67 (1996)) contains a fluorescence donor, EDANS, near one end of the peptide and an acceptor, DABCYL, near the other end. The fluorescence of the peptide is quenched by […] resonance energy transfer (RET) between the donor and the acceptor, but as the NS3 protease cleaves the peptide the products are released from RET quenching and the fluorescence of the donor becomes apparent. The assay reagent was made as follows: 5× cell Luciferase cell culture lysis reagent from Promega (#E153A) diluted to 1× with dH2O, NaCl added to 150 mM final, the FRET peptide diluted to 20 μM final from a 2 mM stock.
To prepare plates, HCV replicon cells, with or without a Renilla luciferase reporter gene, were trypsinized and placed into each well of a 96-well plate with titrated test compounds added in columns 3 through 12; columns 1 and 2 contained a control compound (HCV protease inhibitor), and the bottom row contained cells without compound. The plates were then placed in a CO2 incubator at 37° C.
Subsequent to addition of the test compounds described above (FRET Assay Preparation), at various times the plate was removed and Alamar blue solution (Trek Diagnostics, #00-100) was added per well as a measure of cellular toxicity. After reading in a CYTOFLUOR® 4000 instrument (PE Biosystems), plates were rinsed with PBS and then used for FRET assay by the addition of 30 ul of the FRET peptide assay reagent described above (FRET Assay Preparation) per well. The plate was then placed into the CYTOFLUOR® 4000 instrument which had been set to 340 excite/490 emission, automatic mode for 20 cycles and the plate read in a kinetic mode. Typically, the signal to noise using an endpoint analysis after the reads was at least three-fold. Alternatively, after Alamar blue reading, plates were rinsed with PBS, 50 ul of DMEM (high glucose) without phenol red was added and plates were then used for luciferase assay using the Promega DUAL-GLO® Luciferase Assay System.
Compound analysis was determined by quantification of the relative HCV replicon inhibition and the relative cytotoxicity values. To calculate cytoxicity values, the average Alamar Blue fluorescence signals from the control wells were set as 100% non-toxic. The individual signals in each of the compound test wells were then divided by the average control signal and multiplied by 100% to determine […]. To calculate the HCV replicon inhibition values, an average background value was obtained from the two wells containing the highest amount of HCV protease inhibitor at the end of the assay period. These numbers were similar to those obtained from naïve Huh-7 cells. […]

HCV NS5B = biological target: T1, HCV NS5B (Hepatitis C virus genotype 1b, UniProt Q9WMX2); test: Modified HCV NS5B RdRp enzyme assay (preincubation protocol); format: biochemical
T1 construct: The protein was expressed with an 18 amino acid C-terminal truncation to enhance the solubility; made in house; host or cells: E. coli BL21(DE3)
T1 sequence (Q9WMX2 2420-2992): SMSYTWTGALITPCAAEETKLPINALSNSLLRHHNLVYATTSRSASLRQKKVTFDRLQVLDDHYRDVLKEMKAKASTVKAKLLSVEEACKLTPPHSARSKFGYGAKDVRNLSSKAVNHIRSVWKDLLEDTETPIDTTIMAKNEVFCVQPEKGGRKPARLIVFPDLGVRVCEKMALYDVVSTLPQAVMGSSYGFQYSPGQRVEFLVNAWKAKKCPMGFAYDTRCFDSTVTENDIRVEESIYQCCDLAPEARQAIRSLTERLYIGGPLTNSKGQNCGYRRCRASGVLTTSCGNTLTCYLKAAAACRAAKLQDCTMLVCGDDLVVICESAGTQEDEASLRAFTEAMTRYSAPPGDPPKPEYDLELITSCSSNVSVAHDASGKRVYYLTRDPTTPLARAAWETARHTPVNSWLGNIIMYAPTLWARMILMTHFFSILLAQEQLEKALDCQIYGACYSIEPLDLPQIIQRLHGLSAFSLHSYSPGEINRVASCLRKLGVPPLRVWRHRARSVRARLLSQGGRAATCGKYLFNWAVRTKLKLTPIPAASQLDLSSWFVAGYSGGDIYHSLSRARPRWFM
Summary of the method: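 C-terminally truncated (Δ18) genotype 1b NS5B from E. coli, 14 nM, added to compound first, then polyA template (0.2 nM), 3H-UTP (0.29 μM) and oligo-dT12 primer precaptured on streptavidin SPA beads (20 nM). Run 4 h at 30° C, pH 7.5, 2% DMSO; IC50 fitted from seven concentrations.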

HCV replicon = HCV replicon assay (FRET or luciferase reporter); format: cell-based; settings: Hepatitis C virus, one of the methods described
Summary of the method: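 HCV replicon Huh-7 cells were exposed to titrated compound at 37 °C, with Alamar blue as a cytotoxicity read. Replication was measured by NS3 cleavage of an EDANS/DABCYL FRET peptide (20 μM, 340/490 nm kinetic read) or by Renilla luciferase, with background from high-dose protease inhibitor wells. EC50 was taken as 50% signal reduction; a 384-well format used 3.0×10^3 cells/well, 0.5% DMSO and 3 days.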

[1] = determined similarly but with a 1a replicon, class symbol, read-out: EC50

Row | Structure (SMILES) | IC50 (HCV NS5B; class symbol) | EC50 (HCV replicon; class symbol) | other results
1 | COc1ccc2c(c1)C=C(c1c(C(=O)N3C[C@@H](C)O[C@@H](C)C3)c(C(C)C)nn1C1CC1)Cn1c-2c(C2CCCCC2)c2ccc(C(=O)NS(=O)(=O)C(C)C)cc21 |  |  | EC50 (1a replicon; [1]): 1.7 to 500 nM
2 | COc1ccc2c(c1)C=C(c1c(C(=O)N3C4CCC3CN(C)C4)c(C(C)C)nn1C1CC1)Cn1c-2c(C2CCCCC2)c2ccc(C(=O)NS(=O)(=O)C(C)C)cc21 |  |  | EC50 (1a replicon): 1.7 to 500 nM
3 | COc1ccc2c(c1)C=C(c1c(C(=O)N3C4CCC3COC4)c(C(C)C)nn1C1CC1)Cn1c-2c(C2CCCCC2)c2ccc(C(=O)NS(=O)(=O)C(C)C)cc21 |  |  | EC50 (1a replicon): 1.7 to 500 nM
4 | COc1ccc2c(c1)C=C(c1c(C(=O)N3C[C@@H](C)N(C)[C@@H](C)C3)c(C(C)C)nn1C1CC1)Cn1c-2c(C2CCCCC2)c2ccc(C(=O)NS(=O)(=O)C(C)C)cc21 |  |  | EC50 (1a replicon; [1]): 1.7 to 500 nM
5 | COc1ccc2c(c1)C=C(c1c(C(=O)N3C[C@@H](C)O[C@@H](C)C3)cnn1C1CCC1)Cn1c-2c(C2CCCCC2)c2ccc(C(=O)NS(=O)(=O)CC(C)C)cc21 | 1.7 to 500 nM | 1.7 to 500 nM | 
6 | COc1ccc2c(c1)C=C(c1ncn(C3CC3)c1C(=O)N1CCOCC1)Cn1c-2c(C2CCCCC2)c2ccc(C(=O)NS(=O)(=O)C(C)C)cc21 | 1.7 to 500 nM | 1.7 to 500 nM | IC50 (HCV NS5B; exact value): 2.4 nM; EC50 (HCV replicon; exact value): 8.8 nM
7 | COCCN(CCOC)C(=O)c1cnn(C2CCC2)c1C1=Cc2cc(OC)ccc2-c2c(C3CCCCC3)c3ccc(C(=O)NS(=O)(=O)C(C)C)cc3n2C1 | 1.7 to 500 nM | 1.7 to 500 nM | 
8 | COCC1CN(C(=O)c2cnn(-c3ccncc3C)c2C2=Cc3cc(OC)ccc3-c3c(C4CCCCC4)c4ccc(C(=O)NS(=O)(=O)C(C)C)cc4n3C2)CCO1 (stereo not shown) | 1.7 to 500 nM | 1.7 to 500 nM | IC50 (HCV NS5B; exact value): 5.5 nM; EC50 (HCV replicon; exact value): 170 nM
9 | COc1ccc2c(c1)C=C(c1c(C(=O)N3C4CCC3CC(C)(O)C4)cnn1C1CCC1)Cn1c-2c(C2CCCCC2)c2ccc(C(=O)NS(=O)(=O)CC(C)C)cc21 (stereo not shown) | 1.7 to 500 nM | 1.7 to 500 nM | 
10 | COc1ccc2c(c1)C=C(c1c(C(=O)N3C[C@@H](C)N(C)[C@@H](C)C3)cnn1-c1ccncc1C)Cn1c-2c(C2CCCCC2)c2ccc(C(=O)NS(=O)(=O)C(C)C)cc21 | 1.7 to 500 nM | 1.7 to 500 nM | 
11 | COc1ccc2c(c1)C=C(c1c(C(=O)N3C4CCCC3COC4)cnn1C1CCC1)Cn1c-2c(C2CCCCC2)c2ccc(C(=O)NS(=O)(=O)C(C)C)cc21 | 1.7 to 500 nM | 1.7 to 500 nM | 
12 | COc1ccc2c(c1)C=C(c1c(C(=O)N3C4CCC3CC(C)(O)C4)cnn1C1CCC1)Cn1c-2c(C2CCCCC2)c2ccc(C(=O)NS(=O)(=O)C(C)C)cc21 (stereo not shown) | 1.7 to 500 nM | 1.7 to 500 nM | 
13 | CCN1C[C@@H]2C[C@H]1CN2C(=O)c1cnn(C2CCC2)c1C1=Cc2cc(OC)ccc2-c2c(C3CCCCC3)c3ccc(C(=O)NS(=O)(=O)N(C)C)cc3n2C1 | 1.7 to 500 nM | 1.7 to 500 nM | 
14 | COc1ccc2c(c1)C=C(c1c(C(=O)N3C4CCCC3COC4)cnn1C1CCN(C)CC1)Cn1c-2c(C2CCCCC2)c2ccc(C(=O)NS(=O)(=O)C(C)C)cc21 | 1.7 to 500 nM | 1.7 to 500 nM | 
15 | CCOC(=O)c1cnn(C2CCN(C)CC2)c1C1=Cc2cc(OC)ccc2-c2c(C3CCCCC3)c3ccc(C(=O)NS(=O)(=O)C(C)C)cc3n2C1 | 1.7 to 500 nM | 1.7 to 500 nM | 
16 | COc1ccc2c(c1)C=C(c1c(C(=O)N3CCOCC3)noc1C1CC1)Cn1c-2c(C2CCCCC2)c2ccc(C(=O)NS(=O)(=O)N(C)C)cc21 | 1.7 to 500 nM | 1.7 to 500 nM | 
17 | COc1ccc2c(c1)C=C(c1c(C(=O)N3CCOCC3)cnn1C1CCC1)Cn1c-2c(C2CCCCC2)c2ccc(C(=O)NS(=O)(=O)CC(C)C)cc21 | 1.7 to 500 nM | 1.7 to 500 nM | 
